Results: patent US12516070B2, “Fused ring derivatives and use thereof in pharmacy” (priority 2020, dated 2026)
pEC50: −log10 of the molar value. Like-named read-outs stand apart in the source and are kept apart here.

Key:
[1] = test system: influenza A virus A/PR/8/34 (H1N1); experiment: Influenza virus cytopathic effect (CPE) assay, A/PR/8/34 (H1N1); type: cell-based; details: MDCK cells, 5 days, CCK8, read-out: EC50, inhibitory activity against influenza A virus A/PR/8/34 (H1N1)
[2] = type: in vivo; details: Mouse, PO, 10 mpk of 8B; concentration of 7B detected
Procedure: (§1) Experimental objectives: To evaluate the druggability of the compounds by measuring pharmacokinetic properties in different animal species.
(§2) Experimental materials: Sprague-Dawley strain rats, Beagle dogs, cynomolgus monkeys.
(§3) The animal pharmacokinetic properties of the compound after intravenous injection and oral administration were tested by standard protocols, in which the candidate compound was prepared as a clear solution (intravenous injection) or as a homogeneous suspension (oral administration), and administered as a single dose to the animals. The vehicles for intravenous injection and oral administration are dimethyl sulfoxide and polyethylene glycol (15)-hydroxystearate aqueous solution in certain proportions. Whole blood samples were collected within 24 hours, centrifuged at 3200 g for 10 minutes, and the supernatant was separated to obtain plasma samples. Quantitative analysis of plasma concentrations was performed by LC-MS/MS analysis method, and pharmacokinetic parameters such as peak concentration, peak time, clearance rate, half-life, and area under the drug-time curve were calculated.

[3] = type: in vivo, cynomolgus monkeys; set-up: Tmax: unit not given here; details: Monkey, PO, 1 mpk of 8B; concentration of 7B detected
Procedure: as §1, §2, §3

[4] = type: in vivo, Beagle dogs; details: Dog, PO, 1 mpk of 8B; concentration of 7B detected
Procedure: as §1, §2, §3

[5] = test system: influenza A virus strain A/PR8/34; experiment: Drug efficacy assay in mice, treatment model of influenza A; type: in vivo, mice (BALB/c); details: 30 mpk BID intragastric, day 2 to day 8

For `CN1C(=O)c2c(O)c(=O)ccn2N2C1CCOc1cc(F)c(F)cc1[C@H]2c1ccccc1` (stereo partly shown) [Compound 1A], the pEC50 ([1]; Influenza A virus, 120 h) was 7.66.

`O=C1c2c(O)c(=O)ccn2N2C(CCOc3cc(F)c(F)cc3[C@H]2c2ccccc2)N1C1CCC1` (stereo partly shown) [Compound 2A] gave a pEC50 ([1]; Influenza A virus, 120 h) of 7.89.

For `O=C1c2c(O)c(=O)ccn2N2[C@H](c3ccccc3)c3ccccc3OCC[C@H]2N1C1CCC1` [Compound 3A], the pEC50 [1] was 7.43.

Compound `CC(C)N1C(=O)c2c(O)c(=O)ccn2N2C1CCOc1ccccc1[C@H]2c1ccccc1` (stereo partly shown) [Compound 4A] has a pEC50 ([1]; Influenza A virus, 120 h) of 7.13.

Work on `COC(=O)OCOc1c2n(ccc1=O)N1[C@H](c3ccccc3)c3cc(F)c(F)cc3OCC[C@H]1N(C)C2=O` [Compound 8B] yielded an AUC [2] of 0.93 µM·h, a Cmax [2] of 309 nM and a T1/2 [2] of 1.3 h. The Tmax [2] was 1.2 h, the AUC [3] was 0.785 µM·h and the Cmax [3] was 163 nM. It also gave a T1/2 [3] of 3.6 h, a Tmax [3] of 3 and an AUC [4] of 0.724 µM·h. It also gave a Cmax [4] of 171 nM, a T1/2 [4] of 4.4 h and a Tmax [4] of 0.75 h. For the same compound, the “Change in body weight (Percentage of starting body weight)” value ([5]; Day 3) was −6.6 ± 1.1 Percentage of starting body weight, the Survival rate ([5]; Day 3) was 100% and the “Change in body weight (Percentage of starting body weight)” value ([5]; Day 4) was −9.3 ± 0.8 Percentage of starting body weight. For the same compound, the Survival rate ([5]; Day 4) was 100%, the “Change in body weight (Percentage of starting body weight)” value ([5]; Day 5) was −8.9 ± 2.2 Percentage of starting body weight and the Survival rate ([5]; Day 5) was 100%. The “Change in body weight (Percentage of starting body weight)” value ([5]; Day 6) was −9.4 ± 1.9 Percentage of starting body weight, the Survival rate ([5]; Day 6) was 100% and the “Change in body weight (Percentage of starting body weight)” value ([5]; Day 7) was −7.7 ± 1.4 Percentage of starting body weight. The Survival rate ([5]; Day 7) was 100%, the “Change in body weight (Percentage of starting body weight)” value ([5]; Day 8) was −0.9 ± 0.8 Percentage of starting body weight and the Survival rate ([5]; Day 8) was 100%. For the same compound, the “Change in body weight (Percentage of starting body weight)” value ([5]; Day 9) was −0.5 ± 1.1 Percentage of starting body weight, the Survival rate ([5]; Day 9) was 100% and the “Change in body weight (Percentage of starting body weight)” value ([5]; Day 10) was 0.5 ± 0.6 Percentage of starting body weight. For the same compound, the Survival rate ([5]; Day 10) was 100%, the “Change in body weight (Percentage of starting body weight)” value ([5]; Day 11) was 2.5 ± 0.6 Percentage of starting body weight and the Survival rate ([5]; Day 11) was 100%. For the same compound, the “Change in body weight (Percentage of starting body weight)” value ([5]; Day 12) was 2.9 ± 1.0 Percentage of starting body weight, the Survival rate ([5]; Day 12) was 100% and the “Change in body weight (Percentage of starting body weight)” value ([5]; Day 13) was 2.4 ± 1.3 Percentage of starting body weight. The Survival rate ([5]; Day 13) was 100%, the “Change in body weight (Percentage of starting body weight)” value ([5]; Day 14) was 2.7 ± 1.4 Percentage of starting body weight and the Survival rate ([5]; Day 14) was 100%.

With `CN1C(=O)c2c(O)c(=O)ccn2N2C1CCOc1cc(F)c(F)cc1[C@H]2c1ccc(F)cc1` (stereo partly shown) [Compound 9A] the pEC50 ([1]; Influenza A virus, 120 h) was 7.47.

`CN1C(=O)c2c(O)c(=O)ccn2N2[C@H](c3ccccc3Br)c3cc(F)c(F)cc3OCC[C@@H]12` [Compound 18A] gave a pEC50 ([1]; Influenza A virus, 120 h) of 7.96.

`CN1C(=O)c2c(O)c(=O)ccn2N2[C@H](c3ccccc3)c3ccc(F)c(F)c3OCC[C@@H]12` [Compound 20A] gave a pEC50 ([1]; Influenza A virus, 120 h) of 7.30.
